ChEMBL document CHEMBL4419173, “Small-molecule inhibitors targeting g-protein-coupled rho guanine nucleotide exchange factors” (2014)
Active and inactive are the calls of the source. The rule behind the calls is not given here.

What was measured:
MCF7 [1] = assay: Inhibition of mammospheres formation in human MCF7 cells at 2.5 to 15 uM in presence of 2.5 to 15 uM Rhosin/G04 incubated for 10 days; assay type: functional, cell-based
MCF7 [2] = assay: Inhibition of RhoGEF in human MCF7 cells derived mammospheres assessed as inhibition of 10% calf serum-induced RhoA-GTP formation at 10 uM incubated for 24 hrs by densitometry relative to control; assay type: cell-based
MCF7 [3] = assay: Inhibition of RhoGEF in human MCF7 cells derived mammospheres assessed as inhibition of RhoA-mediated phospho-MLC formation incubated for 24 hrs by densitometry; assay type: cell-based
MCF7 [4] = assay: Inhibition of RhoGEF in human MCF7 cells derived mammospheres assessed as inhibition of 10% calf serum-induced RhoA-GTP formation by measuring relative RhoA-GTP level incubated for 24 hrs by densitometry (reference value: 1); assay type: cell-based
MCF7 [5] = assay: Inhibition of RhoGEF in human MCF7 cells derived mammospheres assessed as inhibition of 10% calf serum-induced RhoA-GTP formation by measuring relative RhoA-GTP level at 5 uM incubated for 24 hrs by densitometry (reference value: 1); assay type: cell-based
MCF7 [6] = assay: Growth inhibition of human MCF7 cells at 2.5 to 15 uM in presence of 2.5 to 15 uM Rhosin/G04; assay type: functional, cell-based
Mus musculus [7] = species on record: Mus musculus; assay: Inhibition of RhoGEF in mouse NIH/3T3 cells assessed as inhibition of 10% calf serum-induced Cdc42-GTP formation by measuring relative Cdc42-GTP level at 50 uM in presence of 50 uM Rhosin/G04 incubated for 24 hrs by densitometry (reference value: 1); assay type: cell-based
Mus musculus [8] = species on record: Mus musculus; assay: Inhibition of RhoGEF in mouse NIH/3T3 cells assessed as inhibition of 10% calf serum-induced RhoA-GTP formation by measuring relative RhoA-GTP level at 5 uM in presence of 5 uM Rhosin/G04 incubated for 24 hrs by densitometry (reference value: 1); assay type: cell-based
Mus musculus [9] = species on record: Mus musculus; assay: Inhibition of RhoGEF in mouse NIH/3T3 cells assessed as inhibition of 10% calf serum-induced RhoA-GTP formation by measuring relative RhoA-GTP level at 50 uM incubated for 24 hrs by densitometry (reference value: 1); assay type: cell-based
[10] = biological target: T1, RhoGEF 1/Transforming protein RhoA (Homo sapiens) (UniProt P61586+Q92888); assay: Binding affinity to human LARG (765 to 1138 residues) DH-PH module expressed in mouse NIH/3T3 cells assessed as reduction in LARG binding to human full length RhoA (1 to 193 residues) by measuring relative LARG binding level at 2.5 uM in presence of 2.5 uM Rhosin/G04 pull-down assay (reference value: 1 No unit); assay type: cell-based
[11] = biological target: T1, RhoGEF 1/Transforming protein RhoA (Homo sapiens); assay: Binding affinity to human LARG (765 to 1138 residues) DH-PH module expressed in mouse NIH/3T3 cells assessed as reduction in LARG binding to human full length RhoA (1 to 193 residues) by measuring relative LARG binding level at 50 uM pull-down assay (reference value: 1 No unit); assay type: cell-based
[12] = biological target: T1, RhoGEF 1/Transforming protein RhoA (Homo sapiens); assay: Binding affinity to human LARG (765 to 1138 residues) DH-PH module expressed in mouse NIH/3T3 cells assessed as reduction in LARG binding to human full length RhoA (1 to 193 residues) by measuring relative LARG binding level at 30 uM pull-down assay (reference value: 1 No unit); assay type: cell-based
Mus musculus [13] = species on record: Mus musculus; assay: Inhibition of RhoGEF in mouse NIH/3T3 cells assessed as reduction in 10% calf serum-induced rhoA-mediated actin stress fiber formation at 10 uM by rhodamine-phalloidin staining based assay; assay type: cell-based
Mus musculus [14] = species on record: Mus musculus; assay: Inhibition of RhoGEF in mouse NIH/3T3 cells assessed as inhibition of 10% calf serum-induced RhoA-GTP formation by measuring reduction in RhoA-GTP level at 5 uM in presence of 5 uM Rhosin/G04 incubated for 24 hrs by densitometry relative to control; assay type: cell-based
Mus musculus [15] = species on record: Mus musculus; assay: Inhibition of RhoGEF in mouse NIH/3T3 cells assessed as inhibition of 10% calf serum-induced RhoA-GTP formation by measuring reduction in RhoA-GTP level at 2.5 uM in presence of 2.5 uM Rhosin/G04 incubated for 24 hrs by densitometry relative to control; assay type: cell-based
Mus musculus [16] = species on record: Mus musculus; assay: Inhibition of RhoGEF in mouse NIH/3T3 cells assessed as inhibition of 10% calf serum-induced Rac1-GTP formation by measuring Rac1-GTP level at 30 uM incubated for 24 hrs by densitometry relative to control (reference value: 2.86); assay type: cell-based
[17] = system: Transforming protein RhoA (Homo sapiens), P61586 [Q63L]; assay: Inhibition of constitutively active RhoA Q63L mutant (unknown origin) expressed in mouse NIH/3T3 cells assessed as reduction in 10% calf serum-induced phospho-MLC formation at 50 uM incubated for 24 hrs by densitometry; assay type: cell-based
Transforming protein RhoA (Homo sapiens), P61586 [Q63L], sequence (P61586 whole entry Q63L): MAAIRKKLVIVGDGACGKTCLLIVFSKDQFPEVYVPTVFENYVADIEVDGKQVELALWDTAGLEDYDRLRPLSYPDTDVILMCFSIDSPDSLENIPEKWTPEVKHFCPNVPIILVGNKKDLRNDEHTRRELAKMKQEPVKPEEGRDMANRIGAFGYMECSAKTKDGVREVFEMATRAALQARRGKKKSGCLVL

[18] = system: Rho-associated protein kinase 2 (Homo sapiens), O75116 [UNDEFINED MUTATION]; assay: Inhibition of constitutively active ROCK2 mutant (unknown origin) expressed in mouse NIH/3T3 cells assessed as reduction in 10% calf serum-induced actin stress fiber formation at 30 uM by rhodamine-phalloidin staining based assay; assay type: cell-based
Rho-associated protein kinase 2 (Homo sapiens), O75116 [UNDEFINED MUTATION], sequence (O75116 whole entry, looked up, change not shown): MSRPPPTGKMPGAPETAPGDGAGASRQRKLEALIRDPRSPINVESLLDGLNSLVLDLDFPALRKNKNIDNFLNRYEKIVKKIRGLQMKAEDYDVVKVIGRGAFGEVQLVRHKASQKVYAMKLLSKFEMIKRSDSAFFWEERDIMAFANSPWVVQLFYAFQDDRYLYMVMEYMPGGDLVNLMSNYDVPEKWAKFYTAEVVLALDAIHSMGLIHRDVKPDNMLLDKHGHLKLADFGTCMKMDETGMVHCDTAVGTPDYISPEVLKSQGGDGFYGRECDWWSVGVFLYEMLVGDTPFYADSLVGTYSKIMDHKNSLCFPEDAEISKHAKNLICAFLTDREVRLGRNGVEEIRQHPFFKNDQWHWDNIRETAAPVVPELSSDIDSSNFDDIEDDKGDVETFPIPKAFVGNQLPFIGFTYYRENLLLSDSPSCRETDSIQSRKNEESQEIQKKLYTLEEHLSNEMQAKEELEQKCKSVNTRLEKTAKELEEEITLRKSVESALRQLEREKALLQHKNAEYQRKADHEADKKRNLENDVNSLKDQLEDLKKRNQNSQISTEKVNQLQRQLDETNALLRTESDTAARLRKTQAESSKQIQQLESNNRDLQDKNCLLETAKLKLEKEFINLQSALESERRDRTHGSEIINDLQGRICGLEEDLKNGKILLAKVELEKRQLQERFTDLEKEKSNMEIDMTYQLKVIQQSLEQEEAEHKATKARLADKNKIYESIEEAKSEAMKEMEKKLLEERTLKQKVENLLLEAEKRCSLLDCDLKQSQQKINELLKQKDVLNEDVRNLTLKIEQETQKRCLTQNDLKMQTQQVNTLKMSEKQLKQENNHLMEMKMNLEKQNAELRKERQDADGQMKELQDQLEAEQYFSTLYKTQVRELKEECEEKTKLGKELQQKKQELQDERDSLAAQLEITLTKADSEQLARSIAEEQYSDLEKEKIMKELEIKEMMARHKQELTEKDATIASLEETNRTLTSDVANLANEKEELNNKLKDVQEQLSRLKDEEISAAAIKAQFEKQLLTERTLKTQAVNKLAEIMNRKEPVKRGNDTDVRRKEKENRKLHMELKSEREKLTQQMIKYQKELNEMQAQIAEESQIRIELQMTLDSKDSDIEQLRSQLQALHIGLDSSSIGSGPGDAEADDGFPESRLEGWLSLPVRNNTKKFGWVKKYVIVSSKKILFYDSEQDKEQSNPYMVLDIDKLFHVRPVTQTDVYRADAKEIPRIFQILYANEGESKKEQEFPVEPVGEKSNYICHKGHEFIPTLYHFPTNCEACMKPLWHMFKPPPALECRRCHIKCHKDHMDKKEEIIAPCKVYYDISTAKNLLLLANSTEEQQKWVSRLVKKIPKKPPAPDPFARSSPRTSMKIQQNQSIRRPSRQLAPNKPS

Mus musculus [19] = species on record: Mus musculus; assay: Inhibition of RhoGEF-mediated Cdc42 signaling in mouse NIH/3T3 cells assessed as reduction in Bradykinin-stimulated Cdc42-mediated filopodia formation at 10 to 30 uM; assay type: cell-based
[20] = biological target: Intersectin-1 (Homo sapiens) (UniProt Q15811); assay: Inhibition of GST-tagged human intersectin-1 (1227 to 1571 residues) RhoGEF-catalyzed guanine nucleotide-exchange reaction of human full length Cdc42 (1 to 191 residues) by measuring inhibition of the GDP dissociation from Cdc42 at 0.76 to 250000 nM by Alexa 647 fluorescence dye based GDP/GTP exchange assay
Intersectin-1 (Homo sapiens), sequence (Q15811 whole entry, the tested form may be a part): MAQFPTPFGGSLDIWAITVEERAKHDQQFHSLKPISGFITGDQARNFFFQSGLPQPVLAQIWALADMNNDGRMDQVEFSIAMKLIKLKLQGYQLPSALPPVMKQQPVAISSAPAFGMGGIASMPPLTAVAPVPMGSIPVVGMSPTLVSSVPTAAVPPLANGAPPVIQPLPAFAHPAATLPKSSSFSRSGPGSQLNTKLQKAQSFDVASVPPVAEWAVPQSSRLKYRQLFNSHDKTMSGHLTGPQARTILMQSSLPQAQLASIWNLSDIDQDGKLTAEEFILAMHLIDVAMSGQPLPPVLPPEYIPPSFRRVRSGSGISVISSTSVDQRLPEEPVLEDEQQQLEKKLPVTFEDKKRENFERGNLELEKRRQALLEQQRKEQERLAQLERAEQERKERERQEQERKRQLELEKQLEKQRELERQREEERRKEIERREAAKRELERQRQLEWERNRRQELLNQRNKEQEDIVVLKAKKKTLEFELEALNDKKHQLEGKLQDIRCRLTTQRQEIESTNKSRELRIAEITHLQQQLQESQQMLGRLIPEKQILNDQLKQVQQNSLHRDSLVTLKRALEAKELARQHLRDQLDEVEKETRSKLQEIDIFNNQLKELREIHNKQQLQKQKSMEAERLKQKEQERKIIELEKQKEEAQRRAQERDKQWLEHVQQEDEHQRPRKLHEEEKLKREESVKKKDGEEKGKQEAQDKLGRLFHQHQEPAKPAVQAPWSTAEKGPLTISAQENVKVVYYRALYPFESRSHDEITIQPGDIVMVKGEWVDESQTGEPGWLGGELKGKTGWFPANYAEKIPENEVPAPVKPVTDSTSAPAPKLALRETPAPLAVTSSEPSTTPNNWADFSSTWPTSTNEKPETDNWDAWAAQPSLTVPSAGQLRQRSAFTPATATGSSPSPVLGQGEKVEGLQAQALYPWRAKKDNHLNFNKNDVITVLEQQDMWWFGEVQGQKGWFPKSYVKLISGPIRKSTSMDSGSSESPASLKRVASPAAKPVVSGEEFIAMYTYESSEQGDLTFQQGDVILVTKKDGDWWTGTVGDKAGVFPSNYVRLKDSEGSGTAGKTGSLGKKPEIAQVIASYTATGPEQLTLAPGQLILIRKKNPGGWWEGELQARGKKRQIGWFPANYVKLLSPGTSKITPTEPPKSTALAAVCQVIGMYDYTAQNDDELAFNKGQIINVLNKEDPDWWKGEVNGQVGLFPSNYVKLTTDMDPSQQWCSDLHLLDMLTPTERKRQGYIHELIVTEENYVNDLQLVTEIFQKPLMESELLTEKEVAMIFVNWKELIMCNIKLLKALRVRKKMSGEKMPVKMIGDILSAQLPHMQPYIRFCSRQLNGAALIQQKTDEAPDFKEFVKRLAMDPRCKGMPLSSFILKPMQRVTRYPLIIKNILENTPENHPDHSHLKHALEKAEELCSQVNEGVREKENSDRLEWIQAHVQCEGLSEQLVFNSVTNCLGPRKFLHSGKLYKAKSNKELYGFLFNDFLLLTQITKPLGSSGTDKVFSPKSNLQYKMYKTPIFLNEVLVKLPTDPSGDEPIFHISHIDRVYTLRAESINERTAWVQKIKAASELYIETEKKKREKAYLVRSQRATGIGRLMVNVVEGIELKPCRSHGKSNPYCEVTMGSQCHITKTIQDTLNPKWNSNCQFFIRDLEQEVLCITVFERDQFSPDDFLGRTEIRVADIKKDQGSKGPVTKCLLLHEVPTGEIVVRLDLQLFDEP

Homo sapiens = species on record: Homo sapiens; assay: Inhibition of GST-tagged human TrioN (1284 to 1711 residues) RhoGEF-catalyzed guanine nucleotide-exchange reaction of human full length Rac1 (1 to 192 residues) by measuring inhibition of the GDP dissociation from Rac1 at 0.76 to 250000 nM by Alexa 647 fluorescence dye based GDP/GTP exchange assay
[21] = biological target: Rho guanine nucleotide exchange factor 12 (Homo sapiens, UniProt Q9NZN5); assay: Inhibition of human LARG (765 to 1138 residues) RhoGEF-catalyzed guanine nucleotide-exchange reaction of human full length RhoA (1 to 193 residues) by measuring inhibition of the GDP dissociation from RhoA by Alexa 647 fluorescence dye based GDP/GTP exchange assay
Rho guanine nucleotide exchange factor 12, sequence (Q9NZN5 whole entry, the tested form may be a part): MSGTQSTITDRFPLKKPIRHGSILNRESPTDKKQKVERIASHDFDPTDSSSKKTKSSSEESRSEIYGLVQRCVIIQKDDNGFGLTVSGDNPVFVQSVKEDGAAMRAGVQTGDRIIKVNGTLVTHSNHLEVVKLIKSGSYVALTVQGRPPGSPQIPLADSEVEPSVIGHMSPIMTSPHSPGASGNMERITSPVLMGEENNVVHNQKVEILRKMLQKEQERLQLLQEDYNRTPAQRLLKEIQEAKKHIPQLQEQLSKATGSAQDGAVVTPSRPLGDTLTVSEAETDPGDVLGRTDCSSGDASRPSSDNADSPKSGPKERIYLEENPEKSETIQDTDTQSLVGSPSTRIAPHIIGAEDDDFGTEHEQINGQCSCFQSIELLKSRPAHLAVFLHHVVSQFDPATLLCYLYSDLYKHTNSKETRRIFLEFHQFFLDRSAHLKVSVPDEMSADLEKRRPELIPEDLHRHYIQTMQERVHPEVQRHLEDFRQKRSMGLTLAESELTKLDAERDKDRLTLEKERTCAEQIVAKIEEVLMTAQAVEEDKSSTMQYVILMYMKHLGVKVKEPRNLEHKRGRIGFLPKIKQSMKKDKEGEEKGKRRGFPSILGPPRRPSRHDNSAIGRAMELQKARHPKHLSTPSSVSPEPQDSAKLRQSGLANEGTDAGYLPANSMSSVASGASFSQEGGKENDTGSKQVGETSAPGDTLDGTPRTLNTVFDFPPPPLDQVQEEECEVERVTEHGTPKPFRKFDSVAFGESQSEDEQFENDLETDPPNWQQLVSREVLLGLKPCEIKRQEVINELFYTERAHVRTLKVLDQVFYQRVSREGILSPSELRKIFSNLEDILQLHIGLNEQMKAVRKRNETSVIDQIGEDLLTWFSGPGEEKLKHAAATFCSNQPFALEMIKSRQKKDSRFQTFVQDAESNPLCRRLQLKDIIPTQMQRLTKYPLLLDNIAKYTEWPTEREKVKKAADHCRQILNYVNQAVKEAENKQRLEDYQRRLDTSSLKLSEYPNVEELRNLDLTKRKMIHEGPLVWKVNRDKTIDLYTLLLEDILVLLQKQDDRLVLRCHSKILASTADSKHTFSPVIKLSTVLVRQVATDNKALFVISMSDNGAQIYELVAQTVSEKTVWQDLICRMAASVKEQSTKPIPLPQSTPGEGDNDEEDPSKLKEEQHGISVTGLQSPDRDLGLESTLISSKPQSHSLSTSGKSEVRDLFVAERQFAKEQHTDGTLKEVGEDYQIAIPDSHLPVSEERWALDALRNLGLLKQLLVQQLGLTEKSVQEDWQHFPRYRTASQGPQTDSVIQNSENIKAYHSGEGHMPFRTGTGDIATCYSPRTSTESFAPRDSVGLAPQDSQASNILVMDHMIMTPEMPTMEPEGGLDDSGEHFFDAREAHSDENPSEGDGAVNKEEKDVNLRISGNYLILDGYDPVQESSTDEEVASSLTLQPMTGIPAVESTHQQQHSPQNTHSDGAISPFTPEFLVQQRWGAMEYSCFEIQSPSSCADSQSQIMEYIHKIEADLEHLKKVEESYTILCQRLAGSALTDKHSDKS

[22] = biological target: T1, RhoGEF 1/Transforming protein RhoA (Homo sapiens); assay: Inhibition of GFP-tagged human p115 RhoGEF DH-PH module expressed in mouse NIH/3T3 cells assessed as reduction in human full length RhoA (1 to 193 residues) interaction with p115 RhoGEF at 30 to 50 uM incubated for 1 hr by Western blot analysis based GST-RhoA pull-down assay; assay type: cell-based
[23] = biological target: Rho-associated protein kinase 2/Transforming protein RhoA (Homo sapiens) (UniProt O75116+P61586); assay: Inhibition of human ROCK2 expressed in mouse NIH/3T3 cells assessed as reduction in human full length RhoA (1 to 193 residues) interaction with ROCK2 at 50 to 200 uM incubated for 1 hr by Western blot analysis based His-RhoA pull-down assay; assay type: cell-based
Rho-associated protein kinase 2/Transforming protein RhoA (Homo sapiens), sequence (O75116 whole entry, looked up, the tested form may be a part): as the sequence (O75116 whole entry, looked up, change not shown) above
Rho-associated protein kinase 2/Transforming protein RhoA (Homo sapiens), sequence (P61586 whole entry, looked up, the tested form may be a part): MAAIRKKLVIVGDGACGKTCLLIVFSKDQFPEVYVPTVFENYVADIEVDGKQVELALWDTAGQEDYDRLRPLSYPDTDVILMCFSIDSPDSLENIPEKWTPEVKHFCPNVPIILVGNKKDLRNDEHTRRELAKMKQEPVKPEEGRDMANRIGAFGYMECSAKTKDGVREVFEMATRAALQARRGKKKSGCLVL

- fold change (FC) [10]: 0.71
- fold change (FC) [11]: 0.19
- fold change (FC) [12]: 0.57
- inhibition [17]: inactive
- inhibition [18]: inactive
- inhibition [20]: inactive
- inhibition (Homo sapiens): inactive
- inhibition [21]: Dose-dependent effect
- inhibition [22]: Active
- inhibition [23]: inactive
SMILES: Cc1cccc(COc2cccc(/C=C3\C(=O)NN(c4ccccc4)C3=O)c2)c1
- inhibition (MCF7 [1]): Active
- inhibition (MCF7 [2]): 50%
- inhibition (MCF7 [3]): Dose-dependent effect
- inhibition (MCF7 [4]): Dose-dependent effect
- fold change (FC) (MCF7 [5]): 0.77
- growth inhibition (GI) (MCF7 [6]): Active
- fold change (FC) (Mus musculus [7]): 1.27
- fold change (FC) (Mus musculus [8]): 0.46
- fold change (FC) (Mus musculus [9]): 0.26
- inhibition (Mus musculus [13]): Active
- inhibition (Mus musculus [14]): 80%
- inhibition (Mus musculus [15]): 50%
- fold change (FC) (Mus musculus [16]): 2.36
- inhibition (Mus musculus [19]): inactive
